We go through two molecules from patent publication US7186817B2, “Polynucleotides encoding phytase polypeptides” (Forskningscenter Riso, priority 2000, dated 2007).

In series [1] the test system is phytase activity of fraction F1. As to conditions: fraction F1, pH optimum 5.6; cited from earlier work.
The subject of series [2] is earlier described phytase activity (wheat bran). The conditions noted are these: activity with optimum at about pH 5.0; cited from earlier work.
In another series the test system is soybean phytase. As to conditions: cited from earlier work.
Series [3] is described as follows: Determination of the isoelectric point (non-denaturing isoelectric focusing). In kind it is physicochemical. The conditions noted are these: visualised with 1-naphtylphosphate and Farst Garnet GBC. The protocol: FIG. 5: depicts the isoelectric focusing of the purified wheat bran phytase. A double band at pH 7.4 is visible after incubation with 1-naphtylphosphate and Farst Garnet GBC.
Proteins were focused at 11° C. for a total of 2.5 kVh in non-denaturing isoelectric-focusing polyacrylamid gels (IEF)(Ampholine PAGplate pH 3.5–9.5 (Pharmacia)). An IEF calibration kit (Pharmacia) was applied to determine the pH-gradient across the gel. The IEF markers were visualised by Coomassie staining according to the recommendations of the manufacturer. The presence of acid phosphatase was identified by incubation of the gel at 37° C. in 100 ml 0.05M citrate, pH 4.5 with 50 mg Na-1-naphtyl phosphate (Merck 6815), 25 mg Farst Garnet GBC (Sigma F-8761) and 0.5 ml 10% MgCl.

For the molecule phosphate, the “inhibition of activity by phosphate” value is on record as “inhibited” in series [1] and “not inhibited at all” in series [2]. The enzyme active with soybean phytase (0.5 μM phosphate) was 67%. Further, the Ki at soybean phytase (read-out: apparent Ki, product inhibition by phosphate) is 18 µM.

B1: wheat bran phytase: phytase purified from wheat bran according to the invention (SEQ ID NO: 7) (protein, listed as Triticum aestivum)
chain: MWMWRGSLPLLLLAAAVAAAAEPASTLEGPSRPVTVPLREDRGHAVDLPDTDPRVQRRVTGWAPEQIAVALSAAPTSAWVSWITGDFQMGGAVKPLDPGTVGSVVRYGLAADSLVREATGDALVYSQLYPFEGLQNYTSGIIHHVRLQGLEPGTKYYYQCGDPAIPGAMSAVHAFRTMPAVGPRSYPGRIAVVGDLGLTYNTTSTVDHMASNRPDLVLLVGDVCYANMYLTNGTGADCYSCAFGKSTPIHETYQPRWDYWGRYMEAVTSGTPMMVVEGNHEIEEQIGNKTFAAYRSRFAFPSTESGSFSPFYYSFDAGGIHFLMLGAYADYGRSGEQYRWLEKDLAKVDRSVTPWLVAGWHAPWYTTYKAHYREVECMRVAMEELLYSHGLDIAFTGHVHAYERSNRVFNYTLDPCGAVHISVGDGGNREKMATTHADEPGHCPDPRPKPNAFIGGFCAFNFTSGPAAGRFCWDRQPDYSAYRESSFGHGILEVKNETHALWRWHRNQDMYGSAGDEIYIVREPHRCLHKHNWTRPAHGP
With B1, the “isoelectric focusing, double band at pH” value in series [3] worked out at 7.4 pH.
